Source: patent US11498943B2, “Amyloid inhibitory peptides” (TECHNISCHE UNIVERSITÄT MÜNCHEN, priority 2018, dated 2022)
Where a SMILES comes first, the peptide text is derived from it. [ ]: non-standard residue; d: D form. NMeI = CC[C@H](C)[C@H](NC)C(=O)O; Sar = CNCC(=O)O

Experiments:
Aβ40 [1] = target: T1, Aβ40 (Homo sapiens, UniProt P05067); conditions: Aβ40 500 nM; value marked with literature reference [5]; read-out: IC50 (±SD) (nM) Aβ40 inhibition; cited from earlier work
T1 construct: Aβ40 (TFA salt) was synthesized by Fmoc-based solid phase synthesis (SPPS); made in house; host or cells: chemical synthesis (Fmoc SPPS on Tentagel R PHB resin)

Aβ40 [2] = target: T1, Aβ40; assay: Aβ40 fibrillogenesis by ThT binding, confirmed by TEM, with cell damage by MTT reduction; format: biochemical; conditions: Aβ40 16.5 μM, MTT in PC12 cells
Method: (§1) Thioflavin T (ThT) Binding Assays
(§2) At indicated time points, aliquots were gently mixed with a ThT solution (20 μM ThT in 0.05 M glycine/NaOH, pH 8.5); ThT binding was determined immediately by measuring fluorescence emission at 486 nm upon excitation at 450 nm using a 2030 Multilabel Reader VictorX3 (PerkinElmer Life Sciences). Effects of peptides added at specific pre- and post-nucleation time points of Aβ40 amyloidogenesis were studied by adding aliquots of Aβ40 solutions (16.5 μM; incubation conditions as above) aged for the indicated time points to the peptide (in dry form) as previously described and ThT binding was determined as above.
(§3) 10 μl aliquots of solutions of the ThT binding and MTT assays were applied on carbon-coated grids at indicated time points, washed with distilled water and stained with aqueous 2% (w/v) uranyl acetate as described. Grids were examined using a JEOL JEM 100CX (at 100 kV) or a JEOL 1400 Nus electron microscope (at 120 kV).
(§4) Both cell lines were cultured and plated in 96-well plates as described. […] Following incubation with the cells for ˜20 h (37° C., humidified atmosphere with 5% CO2), the MTT reduction assay was used to assess cell damage/metabolic activity as previously described.

IAPP [3] = target: T2, IAPP (Homo sapiens, UniProt P10997); assay: IAPP fibrillogenesis by ThT binding, confirmed by TEM, with cell damage by MTT reduction; format: biochemical; parameters: IAPP was synthesized by SPPS and the Fmoc-strategy on RINK resin, subjected to air oxidation and purified by RP-HPLC; made in house; host or cells: chemical synthesis (Fmoc SPPS on RINK resin, air oxidation); conditions: IAPP 6 μM, MTT in RIN5fm cells
T2 sequence (P10997 34-70 limits assumed): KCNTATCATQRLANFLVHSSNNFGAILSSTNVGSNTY
Method: as §1, §2, §3, §4

IAPP [4] = target: T2, IAPP; parameters: IAPP was synthesized by SPPS and the Fmoc-strategy on RINK resin, subjected to air oxidation and purified by RP-HPLC; made in house; host or cells: chemical synthesis (Fmoc SPPS on RINK resin, air oxidation); conditions: as previously found; cited from earlier work
[5] = Peptide stability in human plasma (in vitro); format: in vitro ADME; conditions: human blood plasma, 200 μM peptide, 37° C., read-out: t1/2 in human plasma
Method: Peptide Stability in Human Plasma (In Vitro)
Peptides were dissolved in human blood plasma (obtained from voluntary healthy donors) at a concentration of 200 μM and incubated at 37° C. for various time intervals. Following quenching (1/1) with aqueous trichloroacetic acid (10%), solutions were incubated on ice for 10 min, subjected to centrifugation to precipitate plasma proteins (20200 g; 4 min), and the supernatants were mixed (1/2) with a solution consisting of 80% HPLC buffer B and 20% HPLC buffer A (see below). To quantify intact peptide at different time points, solutions containing the supernatants were analyzed by RP-HPLC (detection at 214 nm) by using a Nucleosil 100 C18 column (Grace) (length 33 mm length, ID 8 mm, 7 μm particle size) with a flow rate of 2.0 ml/min and eluting buffers A, 0.058% (v/v) TFA in water, and B, 0.05% (v/v) TFA in 90% (v/v) CH3CN in water. The elution gradient was 10-90% B in A over 8 min; this step was followed by a 90-10% B in A over 3 min step to establish starting conditions. HPLC fractions were collected, lyophilized, and analyzed by MALDI-TOF-MS using a Bruker Daltonik MALDI-TOF MS instrument.

Aβ40 [6] = target: T1, Aβ40; conditions: as previously found; cited from earlier work

T1 sequence (P05067 672-711): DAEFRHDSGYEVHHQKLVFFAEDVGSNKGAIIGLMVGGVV

CC[C@H](C)[C@@H](C(=O)N[C@@H](CC(C)C)C(=O)N[C@@H](CO)C(N)=O)N(C)C(=O)[C@H](C)NC(=O)CN(C)C(=O)[C@H](Cc1ccccc1)NC(=O)[C@H](CC(N)=O)NC(=O)[C@H](CCCNC(=N)N)NC(=O)[C@H](CCCNC(=N)N)NC(=O)[C@H](CCCNC(=N)N)NC(=O)[C@H](Cc1c[nH]cn1)NC(=O)[C@@H](NC(=O)[C@H](CC(C)C)NC(=O)[C@H](Cc1ccccc1)NC(=O)[C@H](CC(N)=O)NC(=O)[C@H](C)NC(=O)[C@H](CC(C)C)NC(=O)[C@H](CCCNC(=N)N)NC(=O)[C@H](CCC(N)=O)NC(=O)[C@@H](NC(=O)[C@H](C)N)[C@@H](C)O)C(C)C [R3-GI (1)] (H-ATQRLANFLVHRRRNF[Sar]A[NMeI]LS-NH2; N-terminus assumed)
IC50 (Aβ40 [1]): 116 nM
Effect on amyloid self-assembly and cell-damaging effects of Aβ40 (Aβ40 [2]): able to inhibit
Effect on amyloid self-assembly and cell damage by IAPP (IAPP [3]): not IAPP amyloidogenesis
app. Kd of interaction with fluorescently labeled IAPP (IAPP [4]): mid-nanomolar
half-life at 200 μM [5]: ~20 min
app. Kd of interaction with fluorescently labeled Aβ40 (Aβ40 [6]): mid-nanomolar
